# Experiment: physchem
# Type: physicochemical
# Conditions: not given
# Method: ^a) Note regarding the determination of the log P values and mass detection: The log P values given were determined in accordance with EEC Directive 79/831 Annex V.A8 by HPLC (High Performance Liquid Chromatography) on a phase inversion column (C18). Agilent 1100 LC system; 50*4.6 Zorbax Eclipse Plus C18 1.8 micron; eluent A: acetonitrile (0.1% formic acid); eluent B: water (0.09% formic acid); linear gradient from 10% acetonitrile to 95% acetonitrile in 4.25 min, then 95% acetonitrile for a further 1.25 min; oven temperature 55° C.; flow: 2.0 ml/min. The mass detection is carried out via an Agilend MSD system.
row,SMILES,logP
1,O=C(NCC(F)(F)F)c1cc(NC(=O)c2cnc(C(F)(F)F)nc2C(F)(F)F)ccc1Cl [Ib-4],3.14^a)
2,CSCCNC(=O)c1cc(NC(=O)c2c(C(F)(F)F)c(C(F)(F)C(F)(F)F)nn2C)ccc1Cl [Ik-82],3.57^a)
3,Cn1nc(C(F)(F)F)cc1C(=O)Nc1ccc(Cl)c(C(=O)NC2CC2)c1 [Ik-71],2.48^a)
4,Cn1nc(C(F)(F)C(F)(F)F)c(C(F)(F)F)c1C(=O)Nc1ccc(OC(F)F)c(C(=O)NC2CC2)c1 [Ik-25],3.49^a)
5,O=C(NCc1ccccc1)c1cc(NC(=O)c2nccc(C(F)(F)F)c2Cl)ccc1Cl [Ie-5],3.16^a)
6,CCSCC(C)NC(=O)c1cc(NC(=O)c2c(C(F)(F)F)c(C(F)(F)C(F)(F)F)nn2C)ccc1Cl (stereo not drawn) [Ik-89],4.09^a)
7,O=C(NCC=CCl)c1cc(NC(=O)c2ccc(C(F)(F)F)nc2Cl)ccc1Cl [Ir-10],2.86^a)
8,Cn1nc(C(F)(Cl)C(F)(F)F)c(Br)c1C(=O)Nc1ccc(Cl)c(C(=O)NC2CC2)c1 (stereo not drawn) [Ik-16],3.35^a)
9,Cn1nc(OC(F)F)c(Br)c1C(=O)Nc1ccc(Cl)c(C(=O)NCC(F)(F)F)c1 [Ik-236],2.88^a)
10,Cn1nc(C(F)(F)C(F)(F)F)c(C(F)(F)F)c1C(=O)Nc1cc(Cl)cc(C(=O)NC2CC2)c1Cl [Ik-170],3.78^a)
11,O=C(NCC=CCl)c1cc(NC(=O)c2cnc(C(F)(F)C(F)(F)F)nc2C(F)(F)F)ccc1Cl [Ib-10],3.59^a)
12,Cn1nc(C(F)(F)C(F)(F)F)c(C(F)(F)F)c1C(=O)Nc1cc(Br)c(I)c(C(=O)NCc2ccccc2)c1 [Ik-211],4.49^a)
13,CSc1c(Cl)cc(NC(=O)c2c(C(F)(F)F)c(C(F)(F)C(F)(F)F)nn2C)cc1C(=O)NC1CC1 [Ik-201],3.80^a)
14,Cn1nc(C(F)(F)C(F)(F)F)c(C(F)(F)F)c1C(=O)Nc1ccc2c(c1)C(=O)OC2 [Ik-106],3.20^a)
15,CC(C)N(C(=O)c1c(C(F)(F)F)c(C(F)(F)C(F)(F)F)nn1C)c1ccc(Cl)c(C(=O)NC2CC2)c1 [Ik-137],3.74^a)
16,Cn1nc(C(F)(F)C(F)(F)F)c(C(F)(F)F)c1C(=O)Nc1ccc(Cl)c(C(=O)NCc2ccc(F)cn2)c1 [Ik-80],4.75^a)
17,Cn1nc(C(F)(F)C(F)(F)F)cc1C(=O)Nc1ccc(Cl)c(C(=O)NC2CC2)c1 [Ik-17],2.94^a)
18,Cn1nc(C(F)(F)F)c(C(F)(F)F)c1C(=O)Nc1ccc(Cl)c(C(=O)NCC=CCl)c1 [Ik-196],3.28^a)
19,CNC(=O)c1cc(NC(=O)c2ccc(C(F)(F)F)nc2Cl)ccc1Cl [Ir-6],2.16^a)

row,SMILES,logP
1,CC(Oc1cc(C(F)(F)F)c(C(=O)Nc2ccc(Cl)c(C(=O)NC3CC3)c2)cn1)C(F)(F)F (stereo not drawn) [Ij-2],3.32^a)
2,Cn1nc(C(F)(F)C(F)(F)F)c(C(F)(F)F)c1C(=O)Nc1cc(F)c(I)c(C(=O)NC2CC2)c1 [Ik-225],3.63^a)
3,Cn1nc(OC(F)F)c(Br)c1C(=O)Nc1ccc(Cl)c(C(=O)NC2CC2)c1 [Ik-237],2.51^a)
4,Cn1nc(OCC(F)(F)F)c(I)c1C(=O)Nc1ccc(Cl)c(C(=O)NC2CC2)c1 [Ik-245],2.85^a)
5,Cn1nc(C(F)(F)C(F)(F)F)c(C(F)(F)F)c1C(=O)Nc1cc(F)c(F)c(C(=O)NC2CC2)c1F [Ik-169],3.53^a)
6,C=CCNC(=O)c1cc(NC(=O)c2c(C(F)(F)F)c(C(F)(F)C(F)(F)F)nn2C)ncc1Cl [Ik-316],3.38^a)
7,Cn1nc(C(F)(F)C(F)(F)F)c(Br)c1C(=O)Nc1ccc(Cl)c(C(=O)NCC=CCl)c1 [Ik-28],3.64^a)
8,CC(NC(=O)c1cc(NC(=O)c2c(Br)c(C(F)(F)F)nn2C)ccc1Cl)C(F)(F)F (stereo not drawn) [Ik-158],3.40^a)
9,O=C(NC1CC1)c1cc(NC(=O)c2cnc(C(F)(F)C(F)(F)F)nc2C(F)(F)C(F)(F)F)ccc1Cl [Ib-33],3.64^a)
10,CC(NC(=O)c1cc(NC(=O)c2c(C(F)(F)F)c(C(F)(F)C(F)(F)F)nn2C)ccc1Br)C(F)(F)F (stereo not drawn) [Ik-174],3.95^a)
11,Cn1nc(C(F)(F)C(F)(F)F)c(C(F)(F)F)c1C(=O)Nc1cc(Cl)c(I)c(C(=O)NCc2ccccc2)c1 [Ik-205],4.45^a)
12,Cn1nc(C(F)(F)C(F)(F)F)c(C(F)(F)F)c1C(=O)Nc1cc(C#N)c(Cl)c(C(=O)NC2CC2)c1 [Ik-187],3.40^a)
13,Cn1nc(C(F)(F)C(F)(F)F)c(C(F)(F)F)c1C(=O)Nc1cc(Cl)c(I)c(C(=O)NCC(F)(F)F)c1 [Ik-206],4.18^a)
14,C=CCc1c(C(F)(F)C(F)(F)F)nn(C)c1C(=O)Nc1ccc(Cl)c(C(=O)NC2CC2)c1 [Ik-262],3.37^a)
15,CC(C)NC(=O)c1cc(NC(=O)c2ccc(C(F)(F)F)nc2Cl)ccc1Cl [Ir-3],2.68^a)
16,Cn1nc(C(F)(F)C(F)(F)F)c(C(F)(F)F)c1C(=O)Nc1cc(F)c(F)c(C(=O)NCC(F)(F)F)c1 [Ik-141],3.89^a)
17,CC(NC(=O)c1cc(NC(=O)c2c(Br)c(C(F)(F)C(F)(F)F)nn2C)ccc1Cl)C1CC1 (stereo not drawn) [Ik-12],3.84^a)
18,Cn1nc(C(F)(F)C(F)(F)C(F)(F)C(F)(F)F)c(I)c1C(=O)Nc1ccc(Cl)c(C(=O)NC2CCC2)c1 [Ik-268],4.16^a)
19,CCn1nc(C(F)(F)C(F)(F)F)c(C(F)(F)F)c1C(=O)Nc1ccc(Cl)c(C(=O)NCC(F)(F)F)c1 [Ik-216],3.93^a)

# Same assay, conditions: HPLC phase inversion (reversed-phase) C18 column, HPLC method a), eluent acetonitrile/water with formic acid; read-out: logP
row,SMILES,chromatographic logP
1,"Cc1nc(C(=O)Nc2ccc(Cl)c(C(=O)NC3CC3)c2)c(C(F)(F)F)c(C(F)(F)C(F)(F)F)n1 [Ia-1, N-[4-Chloro-3-(cyclopropylcarbamoyl)phenyl]-2-methyl-6-(pentafluoroethyl)-5-(trifluoromethyl)pyrimidine-4-carboxamide]",3.33
2,COC(=O)c1[nH]nc(C(F)(F)C(F)(F)F)c1C(F)(F)F [Methyl 3-(pentafluoroethyl)-4-(trifluoromethyl)-1H-pyrazole-5-carboxylate],3.02
3,"Cn1ccc(C(F)(Cl)C(F)(F)F)n1 (stereo not drawn) [1-Methyl-3-(1-chloro-1,2,2,2-tetrafluoroethyl)-1H-pyrazole]",2.46
4,"Cn1nc(C(F)(F)C(F)(F)F)c(C(F)(F)F)c1C(=O)Nc1ccnc(C(=O)NC2CC2(F)F)c1 (stereo not drawn) [Ik-130, N-[2-(2,2-Difluorocycloprop-1-ylcarbamoyl)pyrid-4-yl]-1-methyl-3-(pentafluoroethyl)-4-(trifluoromethyl)-1H-pyrazole-5-carboxamide]",3.59
5,O=C(NC1CC1)c1cc(NC(=O)c2cnc(Cl)cc2C(F)(F)F)ccc1Cl [2-chloro-N-[4-chloro-3-(cyclopropylcarbamoyl)phenyl]-4-(trifluoromethyl)pyridine-5-carboxamide],2.35
6,Cn1nc(C(F)(F)C(F)(F)F)cc1C(=O)O [1-Methyl-3-pentafluoroethyl-1H-pyrazole-5-carboxylic acid],2.08
7,"Cn1cc(Br)c(C(F)(Cl)C(F)(F)F)n1 (stereo not drawn) [4-Bromo-1-methyl-3-(1-chloro-1,2,2,2-tetrafluoroethyl)-1H-pyrazole]",3.17
8,CCn1nc(C(F)(F)C(F)(F)F)c(C(F)(F)F)c1C(=O)O [1-Ethyl-3-(pentafluoroethyl)-4-(trifluoromethyl)-1H-pyrazole-5-carboxylic acid],2.18

# Same assay, conditions: HPLC phase inversion (reversed-phase) C18 column, HPLC on C18 phase inversion column, method a); read-out: logP
row,SMILES,chromatographic logP
1,"Cn1nc(C(F)(F)C(F)(F)F)c(C(F)(F)F)c1C(=O)Nc1ccnc(C(=O)NC2CC2(F)F)c1 (stereo not drawn) [Ik-130, N-[2-(2,2-Difluorocycloprop-1-ylcarbamoyl)pyrid-4-yl]-1-methyl-3-(pentafluoroethyl)-4-(trifluoromethyl)-1H-pyrazole-5-carboxamide]",3.59

# Same assay, conditions: logP
row,SMILES,chromatographic logP
1,Cn1nc(C(F)(F)OC(F)(F)OC(F)(F)F)cc1C(=O)O [3-{[Difluoro(trifluoromethoxy)methoxy](difluoro)methyl}-1-methyl-1H-pyrazole-5-carboxylic acid],3.38
